Laboratory results taken from US9233107B2, “Compositions and methods for the treatment of progressive multifocal leukoencephalopathy (PML)” (Biogen MA Inc., priority 2007, dated 2016).
Like-named read-outs stand apart in the source and are kept apart here.

Assays:
[1] = test system: JCV strain Mad1/SVEΔ; assay: microbe, parasite or virus in culture; format: cell-based, JC polyomavirus (JCV); conditions: for % Inhibition (total #JCV+) @10 uM: SV40 transformed glial cells, Mad-1/SVEΔ JCV; for % Inhibition (% JCV+) @10 uM: infection rate, JCV+ cells normalised to total cells
Description: (§1) SV40 transformed glial cells were seeded in 10% FBS media. The cells were seeded at 2000 cells per well in 75 μl of media per well. On day 2, the media was removed and replaced by 35 μl of a 1× concentrated drug aliquot combined with a 100× diluted JCV Turbo aliquot in 35 μl of 2% FBS media (JCV Turbo is a hybrid Mad-1/SVEΔ virus constructed by insertion of the regulatory region of SV40 into the regulatory region of the Mad-1 strain of JCV (Mad-1/SVE), Vacante et al., Virology 1989, 170: 353-361). The cells were incubated for an hour, after which another 65 uL aliquot of 1× concentrated drug in 2% FBS was added. On day 5 the cells were stained with DAPI (for total cell number) and with a mouse monoclonal antibody against SV40 VP1, which cross reacts with the JCV VP1 protein. […] The information is tabulated as % inhibition (as measured by the number and percentage of JCV positive cells).
(§2) JCV Infectivity Assay: SVG-A cells were seeded at 2,000 cells/well/0.075 ml of culture media in 96 flat-bottom well plate (Corning, N.Y.). The next day compounds were prepared in assay medium (2% heat-inactivated fetal bovine serum, 4 mM L-glutamine, 1×MEM). A master viral plate was prepared by mixing equal volumes of [2×] compound and [2×] diluted virus for the final 1× concentration of the compound and the virus. The plate containing cells was gently inverted and shaken to remove media. From the master plate, 0.035 ml compound/virus was added to designated wells. The cells were incubated with the compound/virus mixture for 60 minutes in a humidified 37° C. CO2 incubator. At that time final concentration of the drug in media was added to designated wells to bring the final volume up to 0.1 ml/well. The plates were incubated for an additional three days, the cells were then washed once with 1×PBS, and fixed in 2% paraformaldehyde/1×PBS for 30 minutes at room temperature. The fixative was removed and the cells were solubilized with 0.5% Triton X100 in PBS for an additional 30 minutes. Infection by Mad-1/SVEΔ virus was visualized by staining with PAB597, a monoclonal antibody against the major capsid protein VP1, the cells were incubated with 0.05 ml of PAB597 (2 μg/ml in 1×PBS) for 60 minutes at 37° C. Following a wash step with 1×PBS, primary antibody was detected with an Alexa-Fluor 488-labeled goat anti-mouse secondary antibody at 1:100 dilution in 1×PBS, cells were counterstained with DAPI at 1 μg/ml (0.05 ml/well) for 30 minutes at 37° C. Cells were washed with 1×PBS and 0.1 ml 1×PBS was added to cells. Field images of each well were acquired and analyzed using the Cellomics ArrayScan (Thermo Scientific Inc, Waltham, Mass.) using the Target Activation software. […] The cells are seeded at 4,000 cells/well/0.075 ml of culture media in 96 flat-bottom well plate (Corning). The culture media is used for the infection. The length of the infection is six to ten days (instead of the three days for SVG-A cells).
Calculations: The rate of JCV infection was calculated by normalizing the number of JCV infected cells by the total number of nucleated cells as % JCV^+ cells=((total # VP1^+ cells)/(total # DAPI^+ cells))*100%. The % of viral inhibition by a compound was calculated using a JCV infection rate instead of using total number of JCV infected cells (e.g., VP1^+ cells).

[2] = test system: SVG-A cells; assay: Total cell number (DAPI+ events) / cytotoxicity in the JCV infectivity assay; conditions: for inhibition at 10 µM: Homo sapiens, SVG-A, read-out: % Inhibition total Cell Number @10 uM; for % Inhibition total Cell Number @10 uM: cytotoxicity, DAPI count
Description: as §1, §2
The primary assay employed an SVG-A cell line and JCV Mad1/SVEΔ viral strain.

[3] = JC polyomavirus, Glial cell, read-out: % Inhibition (total #JCV+) @10 uM
[4] = JC polyomavirus, SVG-A, read-out: % Inhibition (% JCV+) @10 uM

Row | Compound | inhibition at 10 µM [1, 3] | inhibition at 10 µM [1, 4] | inhibition at 10 µM [2] | % Inhibition (total #JCV+) @10 uM [1] | % Inhibition (% JCV+) @10 uM [1] | % Inhibition total Cell Number @10 uM [2] | also measured
1 | Nc1nc2ccc(OC(F)(F)F)cc2s1 [RILUZOLE] | 16% | 26% | – | – | – | – | –
2 | COc1cc(/C=C/C(=O)N2CCC=CC2=O)cc(OC)c1OC [PIPLARTINE] | 21% | 27% | -7% | – | – | – | –
3 | CN1CCCN=C1/C=C/c1cccs1 [PYRANTEL PAMOATE] | 48% | 42% | 12% | – | – | – | –
4 | COc1ccc(-c2cc(=O)c3c(O)c(OC)c(OC)c(OC)c3o2)cc1OC [DEMETHYLNOBILETIN] | – | – | – | 38% | 20% | 20% | –
5 | COc1cc([C@@H]2c3cc4c(cc3[C@H](O)[C@H]3COC(=O)[C@@H]23)OCO4)cc(OC)c1OC [PICROPODOPHYLLOTOXIN] | 19% | 22% | -1% | – | – | – | –
6 | COc1cc(OC)c(C(C)=O)c(OC)c1 [METHYLXANTHOXYLIN] | – | – | – | 33% | 30% | 5% | –
7 | COc1ccc([C@@H](C)C(=O)c2ccc(O)cc2O)cc1 [(R)-ANGOLENSIN] | – | – | – | 18% | 22% | −5% | –
8 | C[C@H](N)CO [L-ALANINOL] | – | – | – | 13% | 31% | −23% | –
9 | CC(C)=CCc1c(O)cc2oc(C)cc(=O)c2c1O [PEUCENIN] | 21% | 27% | -7% | – | – | – | –
10 | O=c1cc(-c2ccccc2)oc2cccc(O)c12 [PRIMULETIN] | – | – | – | 40% | 29% | 12% | –
11 | C[C@@H]1CC[C@@]2(OC1)O[C@H]1C[C@H]3[C@@H]4CC[C@H]5C[C@@H](O)CC[C@]5(C)C4=CC[C@]3(C)[C@H]1[C@@H]2C [3beta-HYDROXYISOALLOSPIROST-9(11)-ENE] | – | – | – | 25% | 21% | 3% | –
12 | CC1=CCc2c(cc3oc(C)cc(=O)c3c2O)OC1 [PTAEROXYLIN] | 32% | 22% | 11% | – | – | – | –
13 | Cc1c(Cl)cccc1Nc1ccccc1C(=O)O [TOLFENAMIC ACID] | 61% | 53% | 18% | – | – | – | –
14 | CCOc1nc2cccc(C(=O)OC(C)OC(=O)OC3CCCCC3)c2n1Cc1ccc(-c2ccccc2-c2nn[nH]n2)cc1 (stereo not shown) [CANDESARTAN CILEXTIL] | – | – | – | 54% | 44% | 19% | –
15 | Nc1ccn(C[C@@H](CO)OCP(=O)(O)O)c(=O)n1 [cidofovir] | – | – | – | – | – | – | percent inhibition of infection rate (% JCV+ cells), in words ([1]; FIG. 3D, SVG-A cells): not significant; inhibition of total number of cells in culture, in words [2]: inhibited the total number of cells in culture to the same degree
16 | GINKGOLIC ACID | – | – | – | 33% | 39% | −8% | –

Row | Compound | inhibition at 10 µM [1, 3] | inhibition at 10 µM [1, 4] | inhibition at 10 µM [2] | % Inhibition (total #JCV+) @10 uM [1] | % Inhibition (% JCV+) @10 uM [1] | % Inhibition total Cell Number @10 uM [2] | also measured
17 | COc1cc2c(cc1-c1cc3cc4ccoc4cc3oc1=O)OCO2 [PACHYRRHIZIN] | – | – | – | 45% | 34% | 17% | –
18 | OCCN(CCO)c1nc(N2CCCCC2)c2nc(N(CCO)CCO)nc(N3CCCCC3)c2n1 [DIPYRIDAMOLE] | 24% | 22% | 3% | – | – | – | –
19 | COc1ccc2c(c1)c(CC(=O)OCC(=O)O)c(C)n2C(=O)c1ccc(Cl)cc1 [ACEMETACIN] | 32% | 38% | -8% | – | – | – | –
20 | COC(=O)c1c(C)c2c(c(C)c1O)OC(=O)c1c(C)c(Cl)c(O)c(Cl)c1O2 [LEOIDIN] | 14% | 21% | -9% | – | – | – | –
21 | C=C[C@@H]1C2=CCOC(=O)C2=CO[C@H]1O[C@@H]1O[C@H](CO)[C@@H](O)[C@H](O)[C@H]1O [GENTIOPICROSIDE] | 32% | 22% | 11% | – | – | – | –
22 | C[C@H]1C[C@H]2[C@@H]3CCC4=CC(=O)C=C[C@]4(C)[C@@]3(F)[C@@H](O)C[C@]2(C)[C@@]1(O)C(=O)CO [BETAMETHASONE] | 34% | 24% | 14% | – | – | – | –
23 | COc1ccc(C(=O)c2ccccc2O)c(O)c1 [DIOXYBENZONE, 2,2′-Dihydroxy-4-methoxybenzophenone] | 55% | 49% | 11% | – | – | – | –
24 | c1ccc2[nH]c(-c3cscn3)nc2c1 [THIABENDAZOLE] | 19% | 22% | -1% | – | – | – | –
25 | O=C(O)c1ccccc1Nc1cccc(C(F)(F)F)c1 [FLUFENAMIC ACID] | 37% | 26% | 14% | – | – | – | –
26 | O=C(O)c1cc([N+](=O)[O-])ccc1NCCCc1ccccc1 [5-NITRO-2-PHENYLPROPYLAMINOBENZOIC ACID] | – | – | – | 14% | 21% | −9% | –
27 | CC(=O)OCC(=O)[C@@]12OC3(CCCC3)O[C@@H]1C[C@H]1[C@@H]3CCC4=CC(=O)C=C[C@]4(C)[C@@]3(F)[C@@H](O)C[C@@]12C [AMCINONIDE] | 16% | 25% | -11% | – | – | – | –
28 | CN(CCOc1ccc(CC2SC(=O)NC2=O)cc1)c1ccccn1 (stereo not shown) [ROSIGLITAZONE] | 22% | 23% | -1% | – | – | – | –
29 | O=c1c2ccccc2oc2ccccc12 [XANTHONE] | 39% | 39% | 1% | – | – | – | IC50 ([1]; JC polyomavirus, SVG-A): 16.8 µM
30 | COc1cc(C)c(C(=O)Oc2cc(C)c(C(=O)O)c(O)c2C)c(OC)c1C [DIFFRACTIC ACID] | – | – | – | 44% | 36% | 13% | IC50 ([1]; anti-JCV, inhibition of % JCV infected cells by 50%, full dose response, read-out: IC50): 14.4 µM; CC50 [2]: > 40 µM
31 | O=c1oc2ccccc2c(O)c1Cc1c(O)c2ccccc2oc1=O [DICUMAROL] | 36% | 35% | 3% | – | – | – | –
